According to the NIST ThermoML archive (doi:10.1016/j.jct.2013.11.027):

Columns and labels:
[1] = refractive index (Na D-line) (dimensionless); xn = mol fraction of the nth substance listed; details: 101 kPa, Liquid, Standard Abbe refractometry
[2] = xn = mol fraction of the nth substance listed; details: 101 kPa, Liquid; for speed of sound: Sing-around technique in a fixed-path interferometer; for mass density: Vibrating tube method

CCCCCCCC[n+]1ccn(C)c1.F[B-](F)(F)F [1-methyl-3-octylimidazolium tetrafluoroborate] + C1CCOC1
Details	mass density, 298.15 K [kg/m3]	mass density, 308.15 K [kg/m3]	mass density, 318.15 K [kg/m3]	refractive index, 298.15 K	refractive index, 308.15 K	refractive index, 318.15 K	speed of sound, 298.15 K [m/s]	speed of sound, 308.15 K [m/s]	speed of sound, 318.15 K [m/s]
[1], x1 = 0.0963	–	–	–	1.41425	1.40956	1.40529	–	–	–
[1], x1 = 0.2018	–	–	–	1.42039	1.4162	1.41236	–	–	–
[1], x1 = 0.312	–	–	–	1.42432	1.42045	1.41715	–	–	–
[1], x1 = 0.4027	–	–	–	1.42658	1.4228	1.41965	–	–	–
[1], x1 = 0.4917	–	–	–	1.42817	1.42451	1.42147	–	–	–
[1], x1 = 0.6241	–	–	–	1.42996	1.42631	1.42348	–	–	–
[1], x1 = 0.6862	–	–	–	1.43062	1.42695	1.42415	–	–	–
[1], x1 = 0.7615	–	–	–	1.43129	1.4277	1.42493	–	–	–
[1], x1 = 0.8612	–	–	–	1.43207	1.42846	1.4258	–	–	–
[1], x1 = 1	–	–	–	1.43296	1.42939	1.42684	–	–	–
[2], x1 = 0.0963	944.168	934.385	924.531	–	–	–	1310.8	1268.5	1226.8
[2], x1 = 0.2018	987.574	978.487	969.198	–	–	–	1351.2	1313.4	1276.2
[2], x1 = 0.312	1018.46	1010.19	1001.93	–	–	–	1384.9	1350.7	1317.1
[2], x1 = 0.4027	1037.11	1029.2	1021.32	–	–	–	1406.3	1374.4	1343
[2], x1 = 0.4917	1051.3	1043.65	1035.82	–	–	–	1422.9	1392.6	1362.8
[2], x1 = 0.6241	1067.66	1060.32	1053.02	–	–	–	1442.5	1413.9	1385.9
[2], x1 = 0.6862	1073.96	1066.73	1059.49	–	–	–	1450.2	1422.2	1394.9
[2], x1 = 0.7615	1080.76	1073.65	1066.46	–	–	–	1458.6	1431.1	1404.5
[2], x1 = 0.8612	1088.58	1081.55	1074.56	–	–	–	1470.2	1444.2	1416.3
[2], x1 = 1	1097.61	1090.9	1084.17	–	–	–	1481.1	1453.9	1428.2

CCCCCCCC[n+]1ccn(C)c1.F[B-](F)(F)F [1-methyl-3-octylimidazolium tetrafluoroborate] + C1COCCO1
Details	mass density, 298.15 K [kg/m3]	mass density, 308.15 K [kg/m3]	mass density, 318.15 K [kg/m3]	refractive index, 298.15 K	refractive index, 308.15 K	refractive index, 318.15 K	speed of sound, 298.15 K [m/s]	speed of sound, 308.15 K [m/s]	speed of sound, 318.15 K [m/s]
[1], x1 = 0.0859	–	–	–	1.42308	1.41854	1.41465	–	–	–
[1], x1 = 0.192	–	–	–	1.42601	1.42173	1.41833	–	–	–
[1], x1 = 0.2914	–	–	–	1.42812	1.42412	1.42107	–	–	–
[1], x1 = 0.3963	–	–	–	1.42935	1.42549	1.42264	–	–	–
[1], x1 = 0.4955	–	–	–	1.43039	1.42664	1.42387	–	–	–
[1], x1 = 0.5947	–	–	–	1.43124	1.42746	1.42483	–	–	–
[1], x1 = 0.69	–	–	–	1.43181	1.42809	1.42548	–	–	–
[1], x1 = 0.7938	–	–	–	1.43221	1.42865	1.42605	–	–	–
[1], x1 = 0.8893	–	–	–	1.43262	1.42907	1.42628	–	–	–
[1], x1 = 1	–	–	–	1.43296	1.42939	1.42684	–	–	–
[2], x1 = 0.0859	1049.95	1040.08	1030.18	–	–	–	1380.8	1341.1	1301.8
[2], x1 = 0.192	1064.93	1055.92	1047.49	–	–	–	1414.2	1378.1	1343.1
[2], x1 = 0.2914	1074.44	1066.14	1057.87	–	–	–	1436.8	1403.6	1370.9
[2], x1 = 0.3963	1080.96	1073.08	1065.23	–	–	–	1451.6	1420.6	1390
[2], x1 = 0.4955	1085.46	1077.85	1070.11	–	–	–	1460.4	1430.9	1401.8
[2], x1 = 0.5947	1088.93	1081.57	1074.25	–	–	–	1466.5	1438	1410.1
[2], x1 = 0.69	1091.4	1084.18	1076.98	–	–	–	1469	1440.8	1414.8
[2], x1 = 0.7938	1093.66	1086.61	1079.53	–	–	–	1475.1	1447.9	1421.7
[2], x1 = 0.8893	1095.2	1088.29	1081.42	–	–	–	1477.8	1450.9	1425.1
[2], x1 = 1	1097.61	1090.9	1084.17	–	–	–	1481.1	1453.9	1428.2
